As usually defined, the melting point is the temperature, or range, at which the solid turns liquid.

The source of these data is patent US20020128321A1, “IL-8 receptor antagonists” (SmithKline Beecham Corporation, priority 1996, published 2002).

Structures are written as SMILES.

Tested on in one data set: not given
Assay: not given
Conditions: not given
The molecule `O=C(Nc1ccccc1Cl)Nc1cccc(C(F)(F)F)c1O` [Example 213, N-(2-hydroxy-3-trifluoromethylphenyl)-N′-(2-chlorophenyl)urea] registered a melting point of 179.3 °C.

Molecule `O=C(NCCO)Nc1ccc([N+](=O)[O-])cc1O` [Example 214, N-(2-Hydroxyethyl)-N′-(2-hydroxy-4-nitrophenyl)urea] had a melting point of 168.2 to 168.8 °C. Consider `N#Cc1ccc(NC(=O)Nc2ccccc2NCc2ccccc2)c(O)c1` [Example 232, N-(2-Hydroxy-4-cyanophenyl)-N′-(2-benzylaminophenyl)urea], for which the melting point fell in the range of 108.8 to 109.4 °C. `O=C(Nc1ccccc1)Nc1ccc(F)cc1O` [Example 4, N-(2-hydroxy-4-fluorophenyl)-N′-phenyl urea] displayed a melting point of 195.5 to 195.7 °C. Still for that read-out and setting: to `O=C(Nc1ccc([N+](=O)[O-])cc1O)Nc1ccccc1OCc1ccncc1` [Example 222, N-[2-(4-Pyridylmethoxy)phenyl]-N′-(2-hydroxy-4-nitrophenyl)urea] belongs 189.3 to 189.7 °C; to `O=C(Nc1ccccc1)Nc1ccccc1S` [Example 5, 2-{[(phenylamino)carbonyl]amino}thiophenol], 194.5 °C.

`NC(=O)c1ccc(NC(=O)Nc2ccccc2)c(O)c1` [Example 3, 3-hydroxy-4-{[(phenylamino)carbonyl]amino}benzamide] yielded a melting point of 106.8 to 107.1 °C.

`COC(=O)Nc1ccccc1NC(=O)Nc1ccc([N+](=O)[O-])cc1O` [Example 223, N-[2-(Methoxycarbonylamino)phenyl]-N′-(2-hydroxy-4nitrophenyl)urea] had a melting point of 199.3 to 199.6 °C. As for `NC(=O)N(c1ccc([N+](=O)[O-])cc1O)c1ccccc1OCc1ccccn1` [Example 233, N′-[2-(2-Pyridylmethoxy)phenyl]-N′-(2-Hydroxy-4-nitrophenyl)urea], the melting point lay in the range of 193.5 to 194 °C. Still for that read-out and setting: to `O=C(Nc1ccccc1-c1ccccc1)Nc1cccc(C(F)(F)F)c1O` [Example 204, N-(2-hydroxy-3-trifluoromethylphenyl)-N′-(2-phenylphenyl)urea] belongs 136.7 to 137.3 °C. In the case of `O=C(Nc1ccc([N+](=O)[O-])cc1O)Nc1ccccc1OCc1cccnc1` [Example 221, N-[2-(3-Pyridylmethoxy)phenyl]-N′-(2-hydroxy-4-nitrophenyl)urea], the melting point was in the range of 185.4 to 186.2 °C. Still for that read-out and setting: to `O=C(Nc1cccc(C(F)(F)F)c1O)Nc1cccc(Cl)c1Cl` [Example 203, N-(2-hydroxy-3-trifluoromethylphenyl)-N′-(2,3-dichlorophenyl)urea] belongs 204.3 to 205.2 °C; to `O=C(Nc1ccc([N+](=O)[O-])cc1O)Nc1ccccc1Sc1ccccc1[N+](=O)[O-]`, 204.1 to 205.3 °C. In turn, `O=C(Nc1ccc([N+](=O)[O-])cc1O)Nc1ccccc1NS(=O)(=O)c1cccs1` [Example 216, N-[2-(2-thienylsulfonylamino)phenyl]-N′-(2-hydroxy-4-nitrophenyl)urea] had a melting point of 149 to 149.6 °C. On the same count and under the same terms, to `O=C(Nc1ccc([N+](=O)[O-])cc1O)Nc1ccccc1NC(=O)c1ccccc1` [Example 236, N-[2-(Benzoylamino)phenyl]-N′-(2-hydroxy-4-nitrophenyl)urea] belongs 188.7 to 189.3 °C.

With `COc1ccsc1NC(=O)Nc1cc([N+](=O)[O-])ccc1O` [Example 11, N-(2-hydroxy-5-nitrophenyl)-N′-(3-methoxy-2-thienyl)urea], the melting point was 172.6 to 173 °C. `COC(=O)c1ccc(NC(=O)Nc2ccccc2)c(O)c1` [Example 1, N-[2-Hydroxy-4-(methoxycarbonyl)phenyl]-N′-phenyl urea] yielded a melting point of 188.4 to 188.8 °C.

Another data set concerns the target T1, recombinant IL-8 Rb, or Type II, receptor (permissive receptor) (Homo sapiens, UniProt P25025).
T1 construct: expressed in transfected cells; host or cells: Chinese hamster ovary cells (membrane preparation)
T1 sequence (P25025 1-360): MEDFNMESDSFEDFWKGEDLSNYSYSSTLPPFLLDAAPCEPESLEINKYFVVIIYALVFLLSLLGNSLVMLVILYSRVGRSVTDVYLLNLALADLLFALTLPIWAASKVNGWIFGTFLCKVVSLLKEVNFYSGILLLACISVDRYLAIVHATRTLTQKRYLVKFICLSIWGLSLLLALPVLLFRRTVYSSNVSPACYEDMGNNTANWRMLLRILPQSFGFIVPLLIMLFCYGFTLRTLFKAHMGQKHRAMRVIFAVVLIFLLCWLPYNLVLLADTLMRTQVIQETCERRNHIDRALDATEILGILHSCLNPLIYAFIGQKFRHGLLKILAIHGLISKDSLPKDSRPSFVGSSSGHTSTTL
The data set is described as follows: Receptor binding assay, 125I IL-8, permissive (Type II) receptor. The following applies: concentration at which active. From the text:
[^125I] IL-8 (human recombinant) was obtained from Amersham Corp., Arlington Heights, Ill., with specific activity 2000 Ci/mmol. Gro-a was obtained from NEN-New England Nuclear. All other chemicals were of analytical grade. High levels of recombinant human IL-8 type a and b receptors were individually expressed in Chinese hamster ovary cells as described previously (Holmes, et al., Science, 1991, 253, 1278). The Chinese hamster ovary membranes were homogenized according to a previously described protocol (Haour, et al., J Biol Chem., 249 pp 2195-2205 (1974)). Except that the homogenization buffer was changed to 10 mM Tris-HCL, 1 mM MgS04, 0.5 mM EDTA (ethylene-diaminetetra-acetic acid), 1 m MPMSF (a-toluenesulphonyl fluoride), 0.5 mg/L Leupeptin, pH 7.5. Membrane protein concentration was determined using Pierce Co. micro-assay kit using bovine serum albumin as a standard. All assays were performed in a 96-well micro plate format. Each reaction mixture contained ^125I IL-8 (0.25 nM) or ^125I Gro-a and 0.5 μg/mL of IL-8Ra or 1.0 μg/mL of IL-8Rb membranes in 20 mM Bis-Trispropane and 0.4 mM Tris HCI buffers, pH 8.0, containing 1.2 mM MgSO4, 0.1 mM EDTA, 25 mM NaCl and 0.03% CHAPS. […] The filter was then dried and counted on the Betaplate liquid scintillation counter. […]
Turning to `Cc1cc(Cl)ccc1NC(=O)Nc1ccccc1C(=O)O` [1-(2-Carboxyphenyl)-3-(4-chloro-2-methylphenyl)urea], the “found to be active at (IL-8 receptor inhibition)” value is listed as “about 75 μg/mL”.
